In patent US9206168B2, “(2-heteroarylamino) succinic acid derivatives” (Daiichi Sankyo Company, Limited, priority 2012, dated 2015):
Structures can show the parent of a compound that is named as a salt.

test system: human liver cancer-derived cell line Hep3B; test: In vitro erythropoietin (EPO) induction activity in Hep3B cells (EPO ELISA of culture supernatant); assay type: cell-based; conditions: test compound 12.5 μM, 32 hours at 37° C., multiple of the EPO concentration in the control (0.5% DMSO)
Protocol: In vitro erythropoietin (EPO) induction activity of test compounds was evaluated using human liver cancer-derived cell line Hep3B (ATCC, Manassas, Va.). Hep3B cells were cultured overnight at 37° C. in Dulbecco's modified Eagle's medium (DMEM) in the presence of 10% fetal bovine serum (FBS) (24-well plate, 1.0×10^5 cells/well). After replacing with fresh DMEM (+10% FBS) containing a test compound dissolved in 0.5% dimethyl sulfoxide (DMSO) (prepared to a concentration of 12.5 μM) or a solvent control (0.5% DMSO), the cells were cultured for 32 hours at 37° C. After recovering the culture supernatant, EPO concentration in the culture supernatant was quantified using human EPO ELISA kits (StemCell Technologies).
The EPO concentration using a compound of each example as a test compound was expressed as a multiple of the EPO concentration in the control.

First: Cc1cccc(CNC(=O)c2cnc(NC(=O)CCC(=O)O)nc2O)c1 [Example 14, 4-{[4-Hydroxy-5-(m-tolylmethylcarbamoyl)pyrimidin-2-yl]amino}-4-oxobutanoic acid]
Second: O=C(O)CCC(=O)Nc1ncc(C(=O)NCc2cccc(F)c2)c(O)n1 [Example 12, 4-({5-[(3-Fluorophenyl)methylcarbamoyl]-4-hydroxypyrimidin-2-yl}amino)-4-oxobutanoic acid]
The fold induction at 12.5 µM of the first is lower: 3 for the first, 7.2 for the second.

First: COc1ccc(-c2ccc(C(C)(C)NC(=O)c3cnc(NC(=O)CCC(=O)O)nc3O)cn2)cc1 [Example 10, 4-{[4-Hydroxy-5-({1-[6-(4-methoxyphenyl)pyridin-3-yl]-1-methylethyl}carbamoyl)pyrimidin-2-yl]amino}-4-oxobutanoic acid trifluoroacetate]
Second: O=C(O)CCC(=O)Nc1ncc(C(=O)NCc2ccc(F)c(-c3ccccc3)c2)c(O)n1 [Example 5, 4-({5-[(4-Fluoro-3-phenylphenyl)methylcarbamoyl]-4-hydroxypyrimidin-2-yl}amino)-4-oxobutanoic acid]
The fold induction at 12.5 µM of the first is higher: 10 for the first, 6.3 for the second.

First: O=C(O)CCC(=O)Nc1ncc(C(=O)NCc2cccc(C(F)(F)F)c2)c(O)n1 [Example 11, 4-[(4-Hydroxy-5-{[3-(trifluoromethyl)phenyl]methylcarbamoyl}pyrimidin-2-yl)amino]-4-oxobutanoic acid]
Second: O=C(O)CCC(=O)Nc1ncc(C(=O)NCc2ccc(F)c(F)c2)c(O)n1 [Example 13, 4-({5-[(3,4-Difluorophenyl)methylcarbamoyl]-4-hydroxypyrimidin-2-yl}amino)-4-oxobutanoic acid]
The fold induction at 12.5 µM of the first is lower: 7.5 for the first, 13 for the second.

First: O=C(O)CCC(=O)Nc1ncc(C(=O)NCc2ccc(F)cc2Cl)c(O)n1 [Example 3, 4-({5-[(2-Chloro-4-fluorophenyl)methylcarbamoyl]-4-hydroxypyrimidin-2-yl}amino)-4-oxobutanoic acid]
Second: O=C(O)CCC(=O)Nc1ncc(C(=O)NCc2ccc(Cl)cc2Cl)c(O)n1 [Example 1, 4-({5-[(2,4-Dichlorophenyl)methylcarbamoyl]-4-hydroxypyrimidin-2-yl}amino)-4-oxobutanoic acid]
The fold induction at 12.5 µM of the first is higher: 9.5 for the first, 3.6 for the second.

Compared with `COc1ccc(C(NC(=O)c2cnc(NC(=O)CCC(=O)O)nc2O)C2CCOCC2)cn1` (stereo not drawn) [Example 9, 4-[(4-Hydroxy-5-{[(6-methoxypyridin-3-yl)(tetrahydro-2H-pyran-4-yl)methyl]carbamoyl}pyrimidin-2-yl)amino]-4-oxobutanoic acid trifluoroacetate], `O=C(O)CCC(=O)Nc1ncc(C(=O)NCc2cccc(C3CCCC3)c2)c(O)n1` [Example 17, 4-({5-[(3-Cyclopentylphenyl)methylcarbamoyl]-4-hydroxypyrimidin-2-yl}amino)-4-oxobutanoic acid] is lower in fold induction at 12.5 µM: 16 for the first, 4.4 for the second.

Going from `O=C(O)CCC(=O)Nc1ncc(C(=O)NCc2cccc(-c3ccccc3)c2)c(O)n1` [Example 6, 4-({4-Hydroxy-5-[(3-phenylphenyl)methylcarbamoyl]pyrimidin-2-yl}amino)-4-oxobutanoic acid] to `O=C(O)CCC(=O)Nc1ncc(C(=O)NCc2ccc(F)cc2F)c(O)n1` [Example 2, 4-({5-[(2,4-Difluorophenyl)methylcarbamoyl]-4-hydroxypyrimidin-2-yl}amino)-4-oxobutanoic acid], the fold induction at 12.5 µM rises from 3.7 to 7.9.
